Data from patent EP0584797A2, “Novel cephalosporin compounds and processes for the preparation thereof” (LUCKY LTD., priority 1992, dated 1994).
Converted amounts (≈) assume the structure as drawn.

Assays:
Assay in all cases: minimal inhibitory concentration, two-fold agar dilution
Type in all cases: cell-based
[1] = system: Acinetobacter calcoaceticus ATCC 15473; details: ATCC15473, Muller-Hinton agar, 37°C, 20 hours, read-out: MIC values against the standard strains
Experimental: (§1) These MIC values were taken by employing a two-fold dilution method: that is, two-fold serial dilutions of each of the test compounds were made and dispersed in a Muller-Hinton agar medium; 2µl of the standard test strain which had the 10⁷ CFU(Colony Forming Unit) per ml was inoculated on the medium; and these were incubated at 37°C for 20 hours.

[2] = system: Bacillus cereus ATCC 11778; details: ATCC11778, Muller-Hinton agar, 37°C, 20 hours, read-out: MIC values against the standard strains
Experimental: as §1

[3] = system: Bacillus megaterium ATCC 9885; details: Priestia megaterium, ATCC9885; Muller-Hinton agar; 37°C; 20 hours; read-out: MIC values against the standard strains
Experimental: as §1

[4] = system: Citrobacter freundii ATCC 8090; details: ATCC8090, Muller-Hinton agar, 37°C, 20 hours, read-out: MIC values against the standard strains
Experimental: as §1

[5] = system: Enterobacter aerogenes ATCC 29751; details: Klebsiella aerogenes, ATCC29751; Muller-Hinton agar; 37°C; 20 hours; read-out: MIC values against the standard strains
Experimental: as §1

[6] = system: Enterobacter cloacae ATCC 27508; details: ATCC27508, Muller-Hinton agar, 37°C, 20 hours, read-out: MIC values against the standard strains
Experimental: as §1

[7] = system: Escherichia coli ATCC 10536; details: ATCC10536, Muller-Hinton agar, 37°C, 20 hours, read-out: MIC values against the standard strains
Experimental: as §1

[8] = system: Escherichia coli ATCC 25922; details: ATCC25922, Muller-Hinton agar, 37°C, 20 hours, read-out: MIC values against the standard strains
Experimental: as §1

[9] = system: Klebsiella pneumoniae ATCC 10031; details: ATCC10031, Muller-Hinton agar, 37°C, 20 hours, read-out: MIC values against the standard strains
Experimental: as §1

[10] = system: Micrococcus luteus ATCC 9341; details: ATCC9341, Muller-Hinton agar, 37°C, 20 hours, read-out: MIC values against the standard strains
Experimental: as §1

[11] = system: Morganella morganii ATCC 8076h; details: ATCC8076H, Muller-Hinton agar, 37°C, 20 hours, read-out: MIC values against the standard strains
Experimental: as §1

[12] = system: Proteus mirabilis ATCC 25933; details: ATCC25933, Muller-Hinton agar, 37°C, 20 hours, read-out: MIC values against the standard strains
Experimental: as §1

[13] = system: Proteus vulgaris ATCC 6059; details: ATCC6059, Muller-Hinton agar, 37°C, 20 hours, read-out: MIC values against the standard strains
Experimental: as §1

[14] = system: Providencia rettgeri ATCC 9250; details: ATCC9250, Muller-Hinton agar, 37°C, 20 hours, read-out: MIC values against the standard strains
Experimental: as §1

[15] = system: Pseudomonas aeruginosa ATCC 10145; details: ATCC10145, Muller-Hinton agar, 37°C, 20 hours, read-out: MIC values against the standard strains
Experimental: as §1

[16] = system: Pseudomonas aeruginosa ATCC 25619; details: ATCC25619, Muller-Hinton agar, 37°C, 20 hours, read-out: MIC values against the standard strains
Experimental: as §1

[17] = system: Pseudomonas aeruginosa ATCC 27853; details: ATCC27853, Muller-Hinton agar, 37°C, 20 hours, read-out: MIC values against the standard strains
Experimental: as §1

[18] = system: Salmonella typhimurium ATCC 14028; details: Salmonella enterica; Muller-Hinton agar; 37°C; 20 hours; read-out: MIC values against the standard strains
Experimental: as §1

[19] = system: Serratia marcescens ATCC 27117; details: ATCC27117, Muller-Hinton agar, 37°C, 20 hours, read-out: MIC values against the standard strains
Experimental: as §1

[20] = system: Shigella flexneri ATCC 11836; details: ATCC11836, Muller-Hinton agar, 37°C, 20 hours, read-out: MIC values against the standard strains
Experimental: as §1

[21] = system: Shigella sonnei ATCC 11060; details: ATCC11060, Muller-Hinton agar, 37°C, 20 hours, read-out: MIC values against the standard strains
Experimental: as §1

[22] = system: Staphylococcus aureus ATCC 10537; details: ATCC10537, Muller-Hinton agar, 37°C, 20 hours, read-out: MIC values against the standard strains
Experimental: as §1

[23] = system: Staphylococcus aureus ATCC 6538p; details: ATCC6538P, Muller-Hinton agar, 37°C, 20 hours, read-out: MIC values against the standard strains
Experimental: as §1

[24] = system: Staphylococcus epidermidis ATCC 12228; details: ATCC12228, Muller-Hinton agar, 37°C, 20 hours, read-out: MIC values against the standard strains
Experimental: as §1

[25] = system: Streptococcus faecalis ATCC 29212; details: Enterococcus faecalis, ATCC29212; Muller-Hinton agar; 37°C; 20 hours; read-out: MIC values against the standard strains
Experimental: as §1

| Structure (SMILES) | MIC [1] [µg/mL] | MIC [2] [µg/mL] | MIC [3] [µg/mL] | MIC [4] [µg/mL] | MIC [5] [µg/mL] | MIC [6] [µg/mL] | MIC [7] [µg/mL] | MIC [8] [µg/mL] | MIC [9] [µg/mL] | MIC [10] [µg/mL] | MIC [11] [µg/mL] | MIC [12] [µg/mL] | MIC [13] [µg/mL] | MIC [14] [µg/mL] | MIC [15] [µg/mL] | MIC [16] [µg/mL] | MIC [17] [µg/mL] | MIC [18] [µg/mL] | MIC [19] [µg/mL] | MIC [20] [µg/mL] | other results |
| --- | --- | --- | --- | --- | --- | --- | --- | --- | --- | --- | --- | --- | --- | --- | --- | --- | --- | --- | --- | --- | --- |
| CCO/N=C(\C(=O)N[C@@H]1C(=O)N2C(C(=O)[O-])=C(CSc3nc(N)c4cccnc4[n+]3C)CS[C@H]12)c1csc(N)n1 [Example 31, 7-[(Z)-2-(2-aminothiazol-4-yl)-2-(ethoxyimino)acetamido]-3-(6-amino-3-methylpyrido[5,6,e]pyrimidinium-4-yl)thiomethyl-3-cephem-4-carboxylate] | 16 (≈ 26.6 µM) | 32 (≈ 53.2 µM) | 0.13 (≈ 0.216 µM) | 0.25 (≈ 0.415 µM) | 0.5 (≈ 0.831 µM) | 0.016 (≈ 0.0266 µM) | 0.25 (≈ 0.415 µM) | 0.13 (≈ 0.216 µM) | ≤ 0.008 | 0.031 (≈ 0.0515 µM) | 0.016 (≈ 0.0266 µM) | 1 (≈ 1.66 µM) | 1 (≈ 1.66 µM) | 0.016 (≈ 0.0266 µM) | 32 (≈ 53.2 µM) | 4 (≈ 6.65 µM) | 16 (≈ 26.6 µM) | 1 (≈ 1.66 µM) | 1 (≈ 1.66 µM) | 0.13 (≈ 0.216 µM) | MIC [21]: 0.25 µg/mL (≈ 0.415 µM); MIC [22]: 0.13 µg/mL (≈ 0.216 µM); MIC [23]: 0.13 µg/mL (≈ 0.216 µM); MIC [24]: 0.063 µg/mL (≈ 0.105 µM); MIC [25]: 16 µg/mL (≈ 26.6 µM) |
| CCO/N=C(\C(=O)N[C@@H]1C(=O)N2C(C(=O)[O-])=C(CSc3nc(N)c(C(=O)O)c[n+]3C)CS[C@H]12)c1csc(N)n1 [Example 25, 7-[(Z)-2-(2-aminothiazol-4-yl)-2-(ethoxyimino)acetamido]-3-(4-amino-5-carboxy-1-methylpyrimidinium-2-yl)thiomethyl-3-cephem-4-carboxylate] | 32 (≈ 53.8 µM) | 64 (≈ 108 µM) | 0.25 (≈ 0.42 µM) | 0.063 (≈ 0.106 µM) | 1 (≈ 1.68 µM) | ≤ 0.008 | 0.031 (≈ 0.0521 µM) | 0.031 (≈ 0.0521 µM) | 0.016 (≈ 0.0269 µM) | 0.063 (≈ 0.106 µM) | ≤ 0.008 | 0.25 (≈ 0.42 µM) | 0.25 (≈ 0.42 µM) | ≤ 0.008 | 32 (≈ 53.8 µM) | 2 (≈ 3.36 µM) | 32 (≈ 53.8 µM) | 0.13 (≈ 0.219 µM) | 0.5 (≈ 0.841 µM) | 0.016 (≈ 0.0269 µM) | MIC [21]: 0.063 µg/mL (≈ 0.106 µM); MIC [22]: 0.5 µg/mL (≈ 0.841 µM); MIC [23]: 1 µg/mL (≈ 1.68 µM); MIC [24]: 0.5 µg/mL (≈ 0.841 µM); MIC [25]: > 128 µg/mL |
| Nc1cc[n+](N)c(SCC2=C(C(=O)[O-])N3C(=O)[C@@H](NC(=O)/C(=N\OCC(=O)O)c4csc(N)n4)[C@H]3SC2)n1 [Example 75, 7-[(Z)-2-(2-aminothiazol-4-yl)-2-(carboxymethoxyimino)acetamido]-3-(1,4-diaminopyrimidinium-2-yl)thiomethyl-3-cephem-4-carboxylate] | 4 (≈ 6.88 µM) | 128 (≈ 220 µM) | 0.5 (≈ 0.86 µM) | 0.031 (≈ 0.0533 µM) | 0.5 (≈ 0.86 µM) | ≤ 0.008 | 0.016 (≈ 0.0275 µM) | 0.016 (≈ 0.0275 µM) | 0.016 (≈ 0.0275 µM) | 2 (≈ 3.44 µM) | ≤ 0.008 | 0.063 (≈ 0.108 µM) | 0.031 (≈ 0.0533 µM) | ≤ 0.008 | 8 (≈ 13.8 µM) | 4 (≈ 6.88 µM) | 4 (≈ 6.88 µM) | 0.063 (≈ 0.108 µM) | 0.031 (≈ 0.0533 µM) | 0.016 (≈ 0.0275 µM) | MIC [21]: 0.016 µg/mL (≈ 0.0275 µM); MIC [22]: 4 µg/mL (≈ 6.88 µM); MIC [23]: 8 µg/mL (≈ 13.8 µM); MIC [24]: 4 µg/mL (≈ 6.88 µM); MIC [25]: > 128 µg/mL |
| CC(C)(O/N=C(\C(=O)N[C@@H]1C(=O)N2C(C(=O)[O-])=C(CSc3nc(N)c(N)c[n+]3N)CS[C@H]12)c1csc(N)n1)C(=O)O [Example 47, 7-[(Z)-2-(2-aminothiazol-4-yl)-2-(carboxyprop-2-oxyimino)acetamido]-3-(1,4,5-triaminopyrimidinium-2-yl)thiomethyl-3-cephem-4-carboxylate] | 16 (≈ 25.6 µM) | 128 (≈ 205 µM) | 0.5 (≈ 0.8 µM) | 0.031 (≈ 0.0496 µM) | 1 (≈ 1.6 µM) | ≤ 0.008 | 0.031 (≈ 0.0496 µM) | 0.031 (≈ 0.0496 µM) | 0.031 (≈ 0.0496 µM) | 0.25 (≈ 0.4 µM) | ≤ 0.008 | 0.063 (≈ 0.101 µM) | 0.063 (≈ 0.101 µM) | ≤ 0.008 | 2 (≈ 3.2 µM) | 1 (≈ 1.6 µM) | 2 (≈ 3.2 µM) | 0.13 (≈ 0.208 µM) | 0.13 (≈ 0.208 µM) | 0.031 (≈ 0.0496 µM) | MIC [21]: 0.031 µg/mL (≈ 0.0496 µM); MIC [22]: 2 µg/mL (≈ 3.2 µM); MIC [23]: 4 µg/mL (≈ 6.4 µM); MIC [24]: 2 µg/mL (≈ 3.2 µM); MIC [25]: > 128 µg/mL |
| CC(C)(O/N=C(\C(=O)N[C@@H]1C(=O)N2C(C(=O)[O-])=C(C[n+]3ccccc3)CS[C@H]12)c1csc(N)n1)C(=O)O [Ceftazidime, reference compound] | 2 (≈ 3.66 µM) | 128 (≈ 234 µM) | 0.25 (≈ 0.457 µM) | 0.13 (≈ 0.238 µM) | 8 (≈ 14.6 µM) | 0.031 (≈ 0.0567 µM) | 0.13 (≈ 0.238 µM) | 0.13 (≈ 0.238 µM) | 0.13 (≈ 0.238 µM) | 0.5 (≈ 0.915 µM) | ≤ 0.008 | 0.063 (≈ 0.115 µM) | 0.063 (≈ 0.115 µM) | ≤ 0.008 | 2 (≈ 3.66 µM) | 1 (≈ 1.83 µM) | 1 (≈ 1.83 µM) | 0.25 (≈ 0.457 µM) | 0.13 (≈ 0.238 µM) | 0.031 (≈ 0.0567 µM) | MIC [21]: 0.13 µg/mL (≈ 0.238 µM); MIC [22]: 4 µg/mL (≈ 7.32 µM); MIC [23]: 8 µg/mL (≈ 14.6 µM); MIC [24]: 4 µg/mL (≈ 7.32 µM); MIC [25]: > 128 µg/mL |
| C[n+]1c(-c2ccccc2)cc(N)nc1SCC1=C(C(=O)[O-])N2C(=O)[C@@H](NC(=O)/C(=N\OC(C)(C)C(=O)O)c3csc(N)n3)[C@H]2SC1 [Example 20, 7-[(Z)-2-(2-aminothiazol-4-yl)-2-(carboxyprop-2-oxyimino)acetamido]-3-(4-amino-6-phenyl-1-methylpyrimidinium-2-yl)thiomethyl-3-cephem-4-carboxylate] | 64 (≈ 93.5 µM) | 64 (≈ 93.5 µM) | 0.13 (≈ 0.19 µM) | 0.5 (≈ 0.73 µM) | 4 (≈ 5.84 µM) | 0.13 (≈ 0.19 µM) | 0.25 (≈ 0.365 µM) | 0.5 (≈ 0.73 µM) | 0.13 (≈ 0.19 µM) | 0.25 (≈ 0.365 µM) | ≤ 0.008 | 0.25 (≈ 0.365 µM) | 0.5 (≈ 0.73 µM) | ≤ 0.008 | 16 (≈ 23.4 µM) | 2 (≈ 2.92 µM) | 4 (≈ 5.84 µM) | 1 (≈ 1.46 µM) | 2 (≈ 2.92 µM) | 0.13 (≈ 0.19 µM) | MIC [21]: 0.25 µg/mL (≈ 0.365 µM); MIC [22]: 2 µg/mL (≈ 2.92 µM); MIC [23]: 4 µg/mL (≈ 5.84 µM); MIC [24]: 1 µg/mL (≈ 1.46 µM); MIC [25]: > 128 µg/mL |
